Results as given in US20110086388A1, “CHAPERONE-ASSISTED PROTEIN EXPRESSION AND METHODS OF USE” (Duke University, priority 2009, published 2011).

What was measured:
[1] = system: Actinoplanes ATCC 33076 Ramo16, NAD dependent reductase (native protein, no fusion tag); test: Ramo16 activity assay (continuous spectrophotometric, decrease in NADH absorbance at 340 nm); format: biochemical; conditions: pseudo-substrate acetoacetyl-CoA varied 0 to 5 mM; 250 μM NADH fixed; 10 μM Ramo16; 50 mM HEPES, pH 7.6, 100 mM NaCl; 25° C.
Procedure: FIG. 8 is a kinetic profile of Ramo16 (10 μM) with varied acetoacetyl-CoA (0 to 5 mM) and fixed NADH (250 μM).
Ramo16, the NAD dependent reductase, was expressed natively in autoinduction media to prevent the formation of insoluble aggregates. Expression in a His6-tagged expression vector led to protein instability and ultimately precipitation.
Cloning and Purification of Ramo16: The ramo16 gene was obtained by PCR amplification from cosmid DNA (OO8CK) from Actinoplanes ATCC 33076 using Herculase Hot Start Polymerase with the following primers: the C-terminal his-tag were Ramo16C-F (5′-GGGAATTCCATATGCGCTTGACCGGCAAGACCCCG-3′), Ramo16C-R (5′-CCCAAGCTTGCGCGTGGTGAATCCGCCGTCGAC-3′, and the N-terminal his-tag were Ramo16N-F (5′-TATACCATGGCTCGCTTGACCGGCAAGAC-3′). and Ramo16N-R (5′-TATAGGATCCTCAGCGCGTGGTGAATCCG-3′). The amplified gene products were cloned into the Zero Blunt Cloning Vector and sequenced. […] Fractions were analyzed by SDS-PAGE and the band corresponding to Ramo16 was excised and the identity of the protein confirmed by Q-TOF. […]
Ramo 16 Activity Assay: Initial rates of Ramo16 were determined by monitoring the decrease in absorbance of NADH at 340 nm at 25° C. The 100 μL reactions were monitored in half-area clear bottom Corning plates using a 96 well plate SpectraMax Molecular Devices spectrophotometer. […]

[2] = system: methicillin-resistant Staphylococcus aureus (MRSA); conditions: cited from earlier work
[3] = system: vancomycin-resistant Enterococcus faecium (VRE); conditions: cited from earlier work

| Compound | Km [1] [µM] | kcat [1] [s⁻¹] | effectiveness against MRSA [2] | effectiveness against VRE [3] |
| --- | --- | --- | --- | --- |
| CC(=O)CC(=O)SCCNC(=O)CCNC(=O)[C@H](O)C(C)(C)COP(=O)(O)OP(=O)(O)OC[C@H]1O[C@@H](n2cnc3c(N)ncnc32)[C@H](O)[C@@H]1OP(=O)(O)O [acetoacetyl-Coenzyme A] | 2350 ± 390 | 15.7 ± 1.2 | – | – |
| ramoplanin A2 | – | – | highly effective | highly effective |
